Activity calls are given as the source filed them. The rule behind the calls is not given here.
Tests used:
[1] = target: T1, Amyloid-beta precursor protein (Homo sapiens, UniProt P05067); experiment: Inhibition of amyloid beta (1 to 42) (unknown origin) aggregation after 24 hrs by thioflavin T fluorescence assay
[2] = target: T1, Amyloid-beta precursor protein; experiment: Inhibition of amyloid beta (1 to 42) (unknown origin) fibril formation at 100 uM after 24 hrs by silicotungstic acid staining based transmission electron microscopic analysis
[3] = target: T1, Amyloid-beta precursor protein; experiment: Inhibition of amyloid beta (1 to 42) (unknown origin) fibril formation after 24 hrs by silicotungstic acid staining based transmission electron microscopic analysis

T1 sequence (P05067 whole entry): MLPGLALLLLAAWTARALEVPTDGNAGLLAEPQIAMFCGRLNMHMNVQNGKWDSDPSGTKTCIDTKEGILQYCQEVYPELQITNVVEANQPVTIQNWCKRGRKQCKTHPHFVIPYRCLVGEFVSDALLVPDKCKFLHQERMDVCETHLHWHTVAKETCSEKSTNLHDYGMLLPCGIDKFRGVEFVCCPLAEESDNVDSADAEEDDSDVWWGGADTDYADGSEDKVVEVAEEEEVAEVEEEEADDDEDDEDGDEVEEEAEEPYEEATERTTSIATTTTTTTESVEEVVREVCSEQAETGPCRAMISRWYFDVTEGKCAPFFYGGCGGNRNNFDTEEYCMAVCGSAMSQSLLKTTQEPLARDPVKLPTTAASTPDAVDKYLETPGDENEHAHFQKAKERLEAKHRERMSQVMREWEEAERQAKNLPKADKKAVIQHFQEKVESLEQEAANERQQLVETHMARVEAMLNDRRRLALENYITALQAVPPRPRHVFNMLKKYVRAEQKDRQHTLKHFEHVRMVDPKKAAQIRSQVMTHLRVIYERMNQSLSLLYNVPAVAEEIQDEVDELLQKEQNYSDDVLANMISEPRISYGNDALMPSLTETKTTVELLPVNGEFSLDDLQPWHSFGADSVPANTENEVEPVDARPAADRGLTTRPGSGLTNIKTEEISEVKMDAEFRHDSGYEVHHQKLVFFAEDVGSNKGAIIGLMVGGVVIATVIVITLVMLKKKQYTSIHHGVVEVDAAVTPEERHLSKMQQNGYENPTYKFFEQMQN

Compound	IC50 [1] [µM]	inhibition [2]	inhibition [1]	inhibition [3]
O=C(/C=C/c1ccccc1)N[C@@H](Cc1ccccc1)C(=O)O	> 100	inactive	–	–
O=C(/C=C/c1ccc(O)c(O)c1)N[C@@H](Cc1ccc(O)c(O)c1)C(=O)O	5.7	–	Dose-dependent effect	Dose-dependent effect
O=C(/C=C/c1ccc(O)cc1)N[C@@H](Cc1ccc(O)cc1)C(=O)O	> 100	inactive	–	–
O=C(/C=C/c1ccccc1)N[C@@H](Cc1ccc(O)c(O)c1)C(=O)O	22.7	–	Dose-dependent effect	Dose-dependent effect
COC(=O)[C@H](Cc1ccc(O)c(O)c1)NC(=O)/C=C/c1ccc(O)c(O)c1 [N-CAFFEOYL-DOPA METHYL ESTER]	4.9	–	Dose-dependent effect	Dose-dependent effect
COC(=O)[C@H](Cc1ccc(OC)c(OC)c1)NC(=O)/C=C/c1ccc(OC)c(OC)c1	> 100	inactive	–	–
O=C(/C=C/c1ccccc1)N[C@@H](Cc1ccc(O)cc1)C(=O)O	> 100	inactive	–	–
O=C(CCc1ccc(O)c(O)c1)N[C@@H](Cc1ccc(O)c(O)c1)C(=O)O	8.7	–	Dose-dependent effect	Dose-dependent effect
O=C(/C=C/c1ccc(O)cc1)N[C@@H](Cc1ccccc1)C(=O)O	> 100	inactive	–	–
O=C(/C=C/c1ccc(O)c(O)c1)N[C@@H](Cc1ccccc1)C(=O)O	72.9	–	Dose-dependent effect	Dose-dependent effect
O=C(/C=C/c1ccc(O)c(O)c1)N[C@H](Cc1ccc(O)c(O)c1)C(=O)O	1.6	–	Dose-dependent effect	Dose-dependent effect
O=C(/C=C/c1ccc(O)c(O)c1)N[C@@H](Cc1ccc(O)cc1)C(=O)O	87.8	–	Dose-dependent effect	Dose-dependent effect
O=C(/C=C/c1ccc(O)cc1)N[C@@H](Cc1ccc(O)c(O)c1)C(=O)O	> 100	inactive	–	–

Reference: ChEMBL document CHEMBL4118147, “Structure-activity relationship of clovamide and its related compounds for the inhibition of amyloid β aggregation” (Bioorg Med Chem, 2018)
